Values quoted from earlier work, collected in patent publication US20050003341A1, “Drug discovery assays based on the biology of atherosclerosis, cancer, and alopecia” (priority 2003, published 2005).
Where two headings read alike, the source gives them in different places.

What was measured:
CD18 = conditions: neutrophils, 10^−8 M for 10 min
isolated hair follicles = conditions: for scalp hair growth: Philpott 1996
ACE [1] = conditions: 0.5 mg/kg/day, p<0.05
ACE [2] = tested on: ACE
AT1-receptor = conditions: 25 mg/kg/day
VCAM-1 = conditions: 36 dyn/cm^2; 7.0-13.99 minutes
NF-κB [3] = tested on: NF-κB
TF [4] = conditions: THP-1
leukocytes [5] = conditions: 0.1 and 1 mM, similar in vitro assay
leukocytes [6] = conditions: 5-20 mg/kg/day, oral
TF [7] = conditions: Western blotting; untreated smokers 2.3±0.7
TF [8] = conditions: for Cu^+2 induced procoagulant activity: probucol 20, vitamin E 50, BHT 50, U74389G 20 μmol/L
NF-κB [9] = tested on: NF-κB; remark: listed apart in the source
TF [10] = tested on: TF
AR gene = conditions: 10^−8 M
U251.3 glioma cells = conditions: 3-100 μg/ml, dose dependently
TF [11] = conditions: cultured monocytes
apoE(−/−) mice = conditions: aortic sinus, 48 hours post injection
[12] = tested on: cell attachment to fibronectin; conditions: for cell attachment to coated plates: six ocular melanoma cell lines (Mac Neil 1994A)
apo(a) transgenic mice = conditions: 15 μg, 12 weeks
TF [13] = conditions: cells incubated with AGE-alb
U937 = conditions: p<0.05
CD40 = conditions: concentration- and time-dependent
[14] = a variety of cells, cited studies
[15] = Peterziel 1999, dependent on presence of AR

CNc1ccc2oc(C[C@H]3O[C@@]4(CC[C@H]3C)O[C@H]([C@H](C)C(=O)c3ccc[nH]3)[C@H](C)C[C@H]4C)nc2c1C(=O)O [A 23187]
ERK phosphorylation (ERK; [14]): increase

CCCCCCCCCCCCCC(=O)O[C@@H]1[C@@H](C)[C@@]2(O)[C@@H](C=C(CO)C[C@]3(O)C(=O)C(C)=C[C@@H]23)[C@@H]2C(C)(C)[C@]12OC(C)=O [TPA, phorbol 12-myristate 13-acetate]
ERK phosphorylation (ERK; [14]): increase

apo(a): apolipoprotein(a)
plasminogen binding to fibronectin (fibronectin): completely abolished

estrogen
ERK phosphorylation (ERK; [14]): increase

CSCC[C@H](NC=O)C(=O)N[C@@H](CC(C)C)C(=O)N[C@@H](Cc1ccccc1)C(=O)O [fMLP, N-formylmethionyl-leucyl-phenylalanine]
increase in CD18 surface membrane concentration compared to unstimulated cells (CD18): 4 fold

CC(O)(CS(=O)(=O)c1ccc(F)cc1)C(=O)Nc1ccc(C#N)c(C(F)(F)F)c1 (stereo not shown) [casodex]
Elk-1 transcription activity (ERK; [15]): *The study also showed an increase in Elk-1 transcription activity following treatment with the androgen DHT, or the antiandrogens casodex and hydroxyflutamide. ERK phosphorylation activates Elk-1, which is a member of the ETS family.

IL-1β: interleukin 1β
hair growth (isolated hair follicles; Hoffmann 1997, 6 days, A 23187 2 μM, TPA 1 μM, IL-1β 100 ng per ml): significantly inhibited hair growth | scalp hair growth (isolated hair follicles): inhibition

C[C@H](CSC(=O)c1ccccc1)C(=O)N1C[C@@H](Sc2ccccc2)C[C@H]1C(=O)O [zofenopril]
decrease in aortic corrected cumulative lesion area (ACE [1]): 34% | decrease in common carotid corrected cumulative lesion area (ACE [1]): 39% | macrophage-derived foam cells staining in the intima (ACE [2]; 1 mg/kg/day): significant decrease | native LDL staining in the intima (ACE [2]; 1 mg/kg/day): significant decrease | total lesion area compared to placebo (ACE [2]; zofenopril 0.05 or 1, captopril 5, enalapril 0.5 mg/kg/day): significantly decreased

CCCCc1cc(C(=O)OC)cc(=O)n1Cc1ccc(-c2ccccc2-c2nnn[nH]2)cc1F [Bay 10-6734]
fat-stained area in the aorta (AT1-receptor; controls 28.6±7.5%): 5.3±1.4% | % of macrophage stained area/total plaque cross sectional area (AT1-receptor; controls 58.8±15%): 1±0.2%

NCCCCCC(=O)O [ε-ACA]
Lp(a) binding to fibronectin (fibronectin): not effective | plasminogen binding to fibronectin (fibronectin): inhibited

C[C@]12CCC(=O)C[C@@H]1CC[C@@H]1[C@@H]2CC[C@]2(C)[C@@H](O)CC[C@@H]12 [DHT, Dihydrotestosterone]
ERK phosphorylation (ERK): **The study reports no increase in ERK phosphorylation in LNCaP or PC-3 cells following treatment with DHT. | Elk-1 transcription activity (ERK): *The study also showed an increase in Elk-1 transcription activity following treatment with the androgen DHT, or the antiandrogens casodex and hydroxyflutamide. ERK phosphorylation activates Elk-1, which is a member of the ETS family.

CC(C)(O)C(=O)Nc1ccc([N+](=O)[O-])c(C(F)(F)F)c1 [hydroxyflutamide]
Elk-1 transcription activity (ERK; [15]): *The study also showed an increase in Elk-1 transcription activity following treatment with the androgen DHT, or the antiandrogens casodex and hydroxyflutamide. ERK phosphorylation activates Elk-1, which is a member of the ETS family.

MCP-1: a chemokine
average percent of monocyte remaining bound (VCAM-1): 46%

CCOC(=O)[C@H](CCc1ccccc1)N[C@@H](C)C(=O)N1Cc2ccccc2C[C@H]1C(=O)O [quinapril]
NF-κB activity in atherosclerotic vessels (NF-κB [3]; rabbit femoral arteries): decreased

CC(=O)Oc1ccccc1C(=O)O [aspirin, Acetylsalicylic Acid]
LPS-induced translocation of c-Rel/p65 (TF [4]): inhibited | migration of human lymphocytes (leukocytes [5]): stimulated migration | increase in leukocyte migration relative to control values (leukocytes [6]): 20-70% | increase in TF concentration compared to non-smoker mice (TF [7]): 1.3±0.17 fold

CC(C)(Sc1cc(C(C)(C)C)c(O)c(C(C)(C)C)c1)Sc1cc(C(C)(C)C)c(O)c(C(C)(C)C)c1 [probucol]
Cu^+2 induced procoagulant activity (TF [8]): inhibited

O=C(O)C[C@H](O)C[C@H](O)/C=C/c1c(C2CC2)nc2ccccc2c1-c1ccc(F)cc1 [pitavastatin]
NF-κB activation (NF-κB [9]; human kidney 293 T-cells): inhibited

CC1=C(/C=C/C(C)=C/C=C/C(C)=C/C(=O)O)C(C)(C)CCC1 [ATRA, all-trans retinoic acid]
rate of TF transcription, nuclear run-on (TF [10]; LPS 10 μg/ml 1 hour, ATRA 10^−5 mol/L 30 minutes before LPS): decreased TF transcription | TF mRNA (TF [10]; THP-1, 30 minutes, 10^−5 mol/L): decrease | LUC activity relative to untreated cells (TF [10]; pTF(−2106)LUC transfected THP-1, 30 minutes, 10^−5 mol/L): no decrease

C[C@]12C=CC(=O)C=C1CC[C@@H]1C2=CC[C@]2(C)[C@@H](C(=O)CN3CCN(c4cc(N5CCCC5)nc(N5CCCC5)n4)CC3)CC[C@@H]12.O=C(O)/C=C\C(=O)O [U74389G]
Cu^+2 induced procoagulant activity (TF [8]): inhibited

C[C@]1(O)CC[C@H]2[C@@H]3CCC4=CC(=O)CCC4=C3C=C[C@@]21C [R1881, methyltrienolone]
transcription of the endogenous AR gene, of control levels (AR gene; 8 hours): 85% | transcription of the endogenous AR gene, of control levels (AR gene; 24 hours): 73%

TNC: large ECM glycoprotein
migration distance (U251.3 glioma cells): increased migration distance

angiotensin II: angiotensin II (DRVYIHPF; Angiotensin-2; UniProt P01019 25-32, looked up)
TF antigen and mRNA (TF [11]): dose-depended increase | NF-κB activation (NF-κB [3]; cultured monocytes and VSMC): increased

CC[C@H]1CN2CCc3cc(OC)c(OC)cc3[C@@H]2C[C@@H]1C[C@H]1NCCc2cc(OC)c(OC)cc21 [emetine]
c-mos expression and ERK phosphorylation (ERK; starfish eggs): inhibition

vitamin E
LPS induced TF expression (TF [8]): inhibited | Cu^+2 induced procoagulant activity (TF [8]): inhibited

[Cu+2] [Cu^+2]
procoagulant activity (TF [8]; 10 hours, up to 20 μmol/L, without 8-hydroxyquinoline): no effect | TF mRNA levels (TF [8]; at 2 hours, relative to basal): 50% | increase in TF mRNA (TF [8]; at 6 hours): 3.5 fold

TNFα
ERK phosphorylation (ERK; [14]): increase | scalp hair growth (isolated hair follicles): inhibition

CCCCCCCCCCCCCCCC(=O)OC[C@H](COP(=O)([O-])OCC[N+](C)(C)C)OC(=O)CCCCCCCCCCCCCCC [DPPC, dipalmitoylphosphatidylcholine]
macrophage content (apoE(−/−) mice; saline 10.4±3.4): 9.3±5.8 % of plaque area | lipid content (apoE(−/−) mice; saline 19.6±6.3): 18.1±4.7 % of plaque area

CC[C@H](C)C(=O)O[C@H]1CCC=C2C=C[C@H](C)[C@H](CC[C@@H]3C[C@@H](O)CC(=O)O3)[C@H]21 [mevastatin]
NF-κB activation (NF-κB [9]; EC): inhibited

CC/C(=C(\c1ccccc1)c1ccc(OCCN(C)C)cc1)c1ccccc1 [tamoxifen]
cell attachment to ECM, fibronectin, collagen type I or IV ([12]; ZR75-1 breast cancer cells (Millon 1989)): decreased attachment | cell attachment to fibronectin ([12]; retinal pigment epithelial (RPE) cells (Wagner 1995)): decreased attachment | cell attachment to coated plates [12]: significant inhibition | decrease in area of focal apo(a) accumulation (apo(a) transgenic mice): 97% | decrease in average level of apo(a) in the vessel wall (apo(a) transgenic mice): 69% | decrease in lesion area (apo(a) transgenic mice): 92% | decrease in number of lipid lesions (apo(a) transgenic mice): 80%

CC(=O)N[C@@H](CS)C(=O)O [NAC, N-acetylcysteine]
TF activity (TF [13]): concentration dependent inhibition

C[C@H](CCC(=O)O)C[C@H](C)C[C@H](C)C(=O)/C=C(\O)[C@H](C)C[C@H](C)C/C=C/[C@@H](C)[C@@H](O)[C@@H](C)[C@@H](O)C[C@@H]1CC[C@@](C)([C@H]2CC[C@@](C)([C@@H](C)O)O2)O1 [ionomycin]
cell attachment to coated plates [12]: Significant inhibition

Cc1cc(C(C)(C)C)c(O)c(C(C)(C)C)c1 [BHT]
Cu^+2 induced procoagulant activity (TF [8]): inhibited

CC(C)CCC[C@@H](C)[C@H]1CC[C@H]2[C@@H]3C(=O)C=C4C[C@@H](O)CC[C@]4(C)[C@H]3CC[C@]12C [7-ketocholesterol]
GSH content compared to controls (U937): lower GSH content

B1: CD40L: ligand of CD40, native or recombinant human (protein, UniProt P29965 113-261, looked up)
CD40 ligand, soluble form: MQKGDQNPQIAAHVISEASSKTTSVLQWAEKGYYTMSNNLVTLENGKQLTVKRQGLYYIYAQVTFCSNREASSQAPFIASLCLKSPGRFERILLRAANTHSSAKPCGQQSIHLGGVFELQPGASVFVNVTDPSQVSHGTGFTSFGLLKL
TF expression on the surface of cultured human vascular SMC (CD40): transient increase

B2: IL-1a: interleukin 1α (protein, UniProt P01583 113-271, looked up)
Interleukin-1 alpha: SAPFSFLSNVKYNFMRIIKYEFILNDALNQSIIRANDQYLTAAALHNLDEAVKFDMGAYKSSKDDAKITVILRISKTQLYVTAQDEDQPVLLKEMPEIPKTITGSETNLLFFWETHGTKNYFTSVAHPNLFIATKQDYWVCLAGGPPSITDFQILENQA
scalp hair growth (isolated hair follicles): inhibition
